Columns and labels:
[1] = test system: hESCs (HS401 cell line); experiment: Lipids and lipid derivatives: visual evaluation of morphology, size and thickness of undifferentiated colonies; format: cell-based, human; settings: for morphology of the undifferentiated colonies (in words): in both hES medium and the present culture medium
From the text: (§1) FIGS. 9A-9B show the morphology and differentiation stage of hESCs cultured in the present culture medium and in the presence of lipids and lipid derivatives. UD, PD and DIFF represent undifferentiated, partly differentiated and differentiated hESC colonies, respectively. FIG. 9A) HS401 cell line cultured in the present culture medium supplemented with different lipids and lipid derivatives. FIG. 9B) HS401 cell line cultured in control hES medium supplemented with different lipids and lipid derivatives.
Various lipids and lipid derivatives were tested in the culture medium (RegES) according to some embodiments of the present invention and in the conventional hES culture medium containing KO-SR (Knockout serum replacement, Invitrogen). General morphology, as well as the size and thickness of the undifferentiated colonies were evaluated before each passaging based on visual perceptions (Table 7).

[2] = test system: hESC colonies (HS401 cell line); experiment: Lipids and lipid derivatives: classification of hESC colonies as undifferentiated, partly differentiated, differentiated; format: cell-based, human
From the text: as §1
Furthermore, the hESC colonies were classified into three categories; undifferentiated, partly differentiated and differentiated. Number of each colony type was calculated before each passaging. Later, a percentage value for each colony type of the total amount of colonies was calculated (FIG. 9).

[3] = test system: human embryonic stem cells; experiment: Effect of different vitamins on the undifferentiated growth of human embryonic stem cells; format: cell-based; settings: for effect on undifferentiated growth / number of undifferentiated colonies (in words): retinol 20 μM, nicotinamide 5 mM and 10 mM, Vitamin Mix 1%
Method: The effect of different vitamins on the undifferentiated growth of human embryonic stem cells was tested by providing retinol (20 μM), nicotinamide (5 mM and 10 mM) or commercial Vitamin Mix (1%) containing nicotinamide but not retinol (MEM Vitamin Solution (100x), cat. No. 11120-037, provided by Gibco/Invitrogen) to human embryonic stem cells (Table 1). […] Vitamin Mix had no effect on the undifferentiated growth of embryonic stem cells.
Accordingly, the serum replacement according to some embodiments of the present invention is a xeno-free formulation comprising at least retinol. In some embodiments, the concentration range of retinol in the serum replacement is such that the final culture medium comprises from about 0.25 mg/l to about 0.5 mg/l, more specifically about 0.57 mg/l retinol. Accordingly, in embodiments wherein basal medium is to be supplemented with 20% (vol/vol) serum replacement, said serum replacement comprises retinol from about 1.25 mg/l to about 2.5 mg/l, more specifically about 2.85 mg/l.

[4] = test system: hESCs (Regea 07/046, HS401); experiment: Retinol: proliferation and expression of stem cell markers; format: cell-based, human
Method: FIG. 10A) Bright-field microscopic image of hESCs (Regea 07/046) at day 3 cultured in the present culture medium without retinol for 5 passages. FIG. 10B) Bright-field microscopic image of hESCs (Regea 07/046) at day 3 cultured in the present culture medium containing 2.0 μM retinol for 5 passages. The size of the colonies is larger in the presence of retinol when compared to the colonies cultured without retinol. Scale bar 500 μm. FIGS. 10C-D) Fluorescent microscopic image of hESCs (HS401) cultured in the present culture medium containing 2.0 μM retinol for 12 passages showing positive expression of
Nanog and TRA-1-81. Insets represent DAPI staining. Scale bar 200 μm. FIG. 10E) Cell proliferation analysis of hESC line Regea 07/046 cultured in the present culture medium without and in the presence of 0.5, 2.0 and 3.5 μM retinol for 10 passages. FIG. 10F) Quantitative RT-PCR analysis of Oct4, GDF3, DNMT3B, TDGF1 and Nanog expression in hESC line Regea 07/046 cultured in the present culture medium without and in the presence of 0.5, 2.0 and 3.5 μM retinol for 10 passages.
Retinol was selected to be further evaluated in the maintenance of undifferentiated hESCs. […] In the presence of 2.0 μM retinol, the growth of the colonies started earlier and already at day 3 the size of the colonies was bigger (FIG. 10A-10B).

[5] = test system: hESC line Regea 07/046; experiment: Activin A: proliferation assay, FACS and qRT-PCR of pluripotency markers; format: cell-based, human
Method: FIG. 11B) Quantitative RT-PCR analysis of Nanog, Oct4, GDF3, DNMT3B, GABRB3 and GDF3 expression in hESC line Regea 07/046 cultured in the present culture medium without and in the presence of 5 ng/ml and 10 ng/ml Activin A and hES control medium for 10 passages. FIG. 11C) FACS analysis of SSEA4 and TRA-1-60 stem cell markers of hESC line Regea 07/046 cultured in the present culture medium without and in the presence of 5 ng/ml and 10 ng/ml Activin A and hES control medium for 10 passages.

[6] = in the present culture medium, compared to control hES or Albumax-RegES medium
[7] = in hES culture medium, compared to control hES medium

CC(C)NCC(O)c1ccc(O)c(O)c1 (racemic) [DL-isoproterenol, reference compound]
Morphology ([1]; RegES medium, 0.1 mg/ml): ++
Morphology ([1]; hES medium, 0.1 mg/ml): + (poor morphology, uneven edges in the colonies, thin and/or small colonies)
morphology (in words) ([1]; in hES culture medium): poor morphology and/or excess differentiation
morphology (in words) ([1]; in the present culture medium): satisfying morphology
number of undifferentiated and differentiated colonies [2, 6]: number of undifferentiated colonies increased and the number of differentiated colonies decreased

CC/C=C\C/C=C\C/C=C\CCCCCCCC(=O)O [Alfa-linoleic acid]
Morphology ([1]; RegES medium, 5 μg/ml): −/− (excess differentiation of the colonies, poor morphology)
Morphology ([1]; hES medium, 5 μg/ml): −/− (excess differentiation of the colonies, poor morphology)

CCCCC/C=C\C/C=C\C/C=C\C/C=C\CCCC(=O)O [Arachidonic acid]
number of undifferentiated and differentiated colonies [2, 7]: number of undifferentiated colonies increased and the number of differentiated colonies decreased

CC(C)CCC[C@@H](C)[C@H]1CC[C@H]2[C@@H]3CC=C4C[C@@H](O)CC[C@]4(C)[C@H]3CC[C@]12C [Cholesterol]
number of undifferentiated and differentiated colonies [2, 7]: number of undifferentiated colonies increased and the number of differentiated colonies decreased

CCCCC/C=C\C/C=C\C/C=C\CCCCC(=O)O [Gamma-linoleic acid]
Morphology ([1]; RegES medium, 2.5 μg/ml): − (excess differentiation of the colonies, poor morphology)
Morphology ([1]; hES medium, 2.5 μg/ml): ++

CCCCC/C=C\C/C=C\CCCCCCCC(=O)O [Linoleic acid]
morphology of the undifferentiated colonies (in words) [1]: improved the morphology
number of undifferentiated and differentiated colonies [2, 6]: number of undifferentiated colonies increased and the number of differentiated colonies decreased

NC(=O)c1cccnc1 [Nicotinamide, nicotinamide]
effect on undifferentiated growth / number of undifferentiated colonies (in words) [3]: promoting their differentiation

CCCCCC/C=C\CCCCCCCC(=O)O [Palmitoleic acid]
morphology of the undifferentiated colonies (in words) [1]: improved the morphology
number of undifferentiated and differentiated colonies [2, 6]: number of undifferentiated colonies increased and the number of differentiated colonies decreased

CCCCC[C@H](O)/C=C/[C@H]1[C@H](O)CC(=O)[C@@H]1C/C=C\CCCC(=O)O [Prostaglandin E2]
Morphology ([1]; RegES medium, 50 ng/ml): − (excess differentiation of the colonies, poor morphology)
Morphology ([1]; hES medium, 50 ng/ml): + (poor morphology, uneven edges in the colonies, thin and/or small colonies)

CCCCC[C@H](O)/C=C/[C@@H]1[C@@H](C/C=C\CCCC(=O)O)[C@@H](O)C[C@H]1O [Prostaglandin F2]
Morphology ([1]; RegES medium, 50 ng/ml): ++
Morphology ([1]; hES medium, 50 ng/ml): − (excess differentiation of the colonies, poor morphology)
morphology (in words) ([1]; in hES culture medium): poor morphology and/or excess differentiation
morphology (in words) ([1]; in the present culture medium): satisfying morphology

CC1=C(/C=C/C(C)=C/C=C/C(C)=C/CO)C(C)(C)CCC1 [Retinol, retinol]
morphology of the undifferentiated colonies (in words) [1]: improved the morphology
maintaining stem cells in an undifferentiated state ([3]; 2 μM): effective
effect on undifferentiated growth / number of undifferentiated colonies (in words) [3]: increased the number of undifferentiated colonies considerably
Nanog relative expression level ([4]; 2.0 μM and 3.5 μM, qRT-PCR): over twentyfold
proliferation rate ([4]; 2.0 μM or 3.5 μM, compared to without retinol or 0.5 μM): almost two-fold
proliferation of hESCs and expression of hESC specific markers ([4]; 2.0 μM or above): improved the proliferation of hESCs as well as induced the expression of hESC specific markers
size of the colonies ([4]; 2.0 μM, day 3): bigger
morphology and number of undifferentiated colonies ([4]; 0.1-0.5 μM): not effective
immunocytochemical staining of Nanog and TRA-1-81 ([4]; cultured in the presence of retinol): showed expression of stem cell markers Nanog and TRA-1-81
number of undifferentiated and differentiated colonies [2, 7]: number of undifferentiated colonies increased and the number of differentiated colonies decreased
number of undifferentiated and differentiated colonies [2, 6]: number of undifferentiated colonies increased and the number of differentiated colonies decreased

CCCCCCCCCCCCCCCCCC(=O)O [Stearic acid]
morphology (in words) ([1]; in hES culture medium): poor morphology and/or excess differentiation
morphology (in words) ([1]; in the present culture medium): satisfying morphology
number of undifferentiated and differentiated colonies [2, 6]: number of undifferentiated colonies increased and the number of differentiated colonies decreased

Activin A: Activin A, growth factor supplement of the culture medium
proliferation rate ([5]; 5 or 10 ng/ml in the present culture medium, compared to without Activin A): almost two-fold
expression of pluripotency supporting markers ([5]; FACS and qRT-PCR, transcriptional and translational level): increased the expression

Conjugated linoleic acid
Morphology ([1]; RegES medium, 5 μg/ml): ++
Morphology ([1]; hES medium, 5 μg/ml): +++ (nice morphology, even, thick and big colonies)
morphology of the undifferentiated colonies (in words) [1]: improved the morphology
number of undifferentiated and differentiated colonies [2, 7]: number of undifferentiated colonies increased and the number of differentiated colonies decreased
number of undifferentiated and differentiated colonies [2, 6]: number of undifferentiated colonies increased and the number of differentiated colonies decreased

Lysophosphatidylcholine
Morphology ([1]; RegES medium, 5 μg/ml): ++
Morphology ([1]; hES medium, 5 μg/ml): − (excess differentiation of the colonies, poor morphology)
morphology (in words) ([1]; in hES culture medium): poor morphology and/or excess differentiation
morphology (in words) ([1]; in the present culture medium): satisfying morphology

Phosphatidylcholine
Morphology ([1]; RegES medium, 2.5 μg/ml): − (excess differentiation of the colonies, poor morphology)
Morphology ([1]; hES medium, 2.5 μg/ml): ++
number of undifferentiated and differentiated colonies [2, 7]: number of undifferentiated colonies increased and the number of differentiated colonies decreased

Phosphatidylethanolamine
Morphology ([1]; RegES medium, 5 μg/ml): ++
Morphology ([1]; hES medium, 5 μg/ml): − (excess differentiation of the colonies, poor morphology)
morphology (in words) ([1]; in hES culture medium): poor morphology and/or excess differentiation
morphology (in words) ([1]; in the present culture medium): satisfying morphology
